Laboratory results taken from patent US6410591B1, “3,7 or 3 and 7 thia or oxa prostanoic acid derivatives as agents for lowering intraocular pressure” (Allergan Sales, Inc., priority 2001, dated 2002).

What was measured:
intraocular pressure [1] = assay: Intraocular pressure in dogs, applanation pneumatonometry; format: in vivo; details: for reduced the intraocular pressure (IOP) by: 25 μl to the ocular surface, IOP at 6 hours
Protocol: The compounds were prepared at the said concentrations in a vehicle comprising 0.1% polysorbate 80 and 10 mM TRIS base. Dogs were treated by administering 25 μl to the ocular surface, the contralateral eye received vehicle as a control. Intraocular pressure was measured by applanation pneumatonometry. Dog intraocular pressure was measured immediately before drug administration and at 6 hours thereafter.

intraocular pressure [2] = assay: Intraocular pressure in glaucomatous cynomolgus monkeys; format: in vivo, glaucomatous cynomonlgus monkey

Structure (SMILES): CCCCC[C@H](O)/C=C/[C@H]1[C@H](O)CC(=O)[C@@H]1SCCCSCC(=O)O [Compound 9, {3-[(1R,2S,3R)-3-Hydroxy-2-((S)-(E)-3-hydroxyoct-1-enyl)-5-oxocyclopentyl-sulfanyl]propylsulfanyl}acetic acid]
- reduced the intraocular pressure (IOP) by (intraocular pressure [1]; dose of 0.01% w/v): 45%
- reduced the intraocular pressure (IOP) by (intraocular pressure [1]; dose of 0.1% w/v): 50%
- ocular hypotensive effect (intraocular pressure [1]; topical ocular, 25 μl): pronounced ocular hypotensive effect

Structure (SMILES): CCCCC[C@H](O)/C=C/[C@H]1[C@H](O)CC(=O)[C@@H]1SCCCSCC(=O)OC(C)C [Compound 10, {3-[(1R,2S,3R)-3-Hydroxy-2-((S)-(E)-3-hydroxyoct-1-enyl)-5-oxocyclopentyl-sulfanyl]propylsulfanyl}acetic acid isopropyl ester]
- effect on IOP (intraocular pressure [2]; glaucomatous cynomonlgus monkey, dose of 0.01% w/v): reduced the IOP
- ocular hypotensive effect (intraocular pressure [2]; glaucomatous cynomonlgus monkeys): pronounced ocular hypotensive effect
